In patent US20050148560A1, “Prevention and treatment of hypertensive heart diseases by the selective estrogens 8beta-vinyl-estra-1,3,5(10)-trien-3,17beta-diol and 17beta-fluor-9alpha-vinyl-estra-1,3,5(10)-trien-3,16alpha-diol” (priority 2003, published 2005):
“Also recorded” adds a separate entry of the source.

Legend:
[1] = target: T1, rat prostate estrogen receptor (ERβ containing cytosol) (Rattus norvegicus, UniProt Q62986); assay: Estrogen receptor binding, competition with [3H]-estradiol, rat prostate cytosol (compared with rat uterus cytosol); settings: rat prostate cytosol (ERβ) vs rat uterus cytosol (ERα)
T1 construct: Receptor containing cytosol was prepared from rat prostate (ERβ containing cytosol); from tissue; host or cells: rat prostate cytosol
T1 sequence (Q62986 whole entry): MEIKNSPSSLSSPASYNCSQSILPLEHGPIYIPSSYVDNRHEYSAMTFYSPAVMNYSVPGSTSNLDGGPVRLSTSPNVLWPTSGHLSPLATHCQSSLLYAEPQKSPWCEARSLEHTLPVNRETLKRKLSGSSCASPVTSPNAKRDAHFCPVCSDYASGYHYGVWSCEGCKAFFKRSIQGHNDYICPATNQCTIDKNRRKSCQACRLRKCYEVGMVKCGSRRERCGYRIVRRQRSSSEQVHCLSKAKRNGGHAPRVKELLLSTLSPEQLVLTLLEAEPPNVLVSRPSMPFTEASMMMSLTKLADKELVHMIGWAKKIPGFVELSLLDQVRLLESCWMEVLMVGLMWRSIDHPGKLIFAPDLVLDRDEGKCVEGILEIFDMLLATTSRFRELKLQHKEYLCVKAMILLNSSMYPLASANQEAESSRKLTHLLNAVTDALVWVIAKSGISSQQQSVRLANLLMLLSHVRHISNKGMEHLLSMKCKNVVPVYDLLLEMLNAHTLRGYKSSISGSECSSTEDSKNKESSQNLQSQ
Description: The binding affinity of 8β-Vinyl-estra-1,3,5(10)-trien-3,17β-diol and 17β-Fluor-9α-vinyl-estra-1,3,5(10)-trien-3,16α-diol was determined by competition experiments using [3H]-estradiol as a ligand. Receptor containing cytosol was prepared from rat prostate (ERβ containing cytosol) and rat uterus (ERα containing cytosol).
The preparation of rat uterus cytosol and the binding study were performed as described (Stack, Gorski 1985, Endocrinology 117, 2024-2032) with some modifications as described by Fuhrmann et al. (Fuhrmann U. et al. 1995, Contraception 51: 45-52).
The preparation of rat prostate cytosol and the binding study was performed as described (Testas J. et al., 1981, Endocrinology 109: 1287-1289).

human ERβ = target: T2, human ERβ (Homo sapiens, UniProt Q92731); assay: Binding to human estrogen receptors expressed by the Baculovirus/SF-9-expression system; settings: human receptors expressed by Baculovirus/SF-9-expression system
T2 construct: host or cells: Baculovirus/SF-9 expression system
T2 sequence (Q92731 whole entry): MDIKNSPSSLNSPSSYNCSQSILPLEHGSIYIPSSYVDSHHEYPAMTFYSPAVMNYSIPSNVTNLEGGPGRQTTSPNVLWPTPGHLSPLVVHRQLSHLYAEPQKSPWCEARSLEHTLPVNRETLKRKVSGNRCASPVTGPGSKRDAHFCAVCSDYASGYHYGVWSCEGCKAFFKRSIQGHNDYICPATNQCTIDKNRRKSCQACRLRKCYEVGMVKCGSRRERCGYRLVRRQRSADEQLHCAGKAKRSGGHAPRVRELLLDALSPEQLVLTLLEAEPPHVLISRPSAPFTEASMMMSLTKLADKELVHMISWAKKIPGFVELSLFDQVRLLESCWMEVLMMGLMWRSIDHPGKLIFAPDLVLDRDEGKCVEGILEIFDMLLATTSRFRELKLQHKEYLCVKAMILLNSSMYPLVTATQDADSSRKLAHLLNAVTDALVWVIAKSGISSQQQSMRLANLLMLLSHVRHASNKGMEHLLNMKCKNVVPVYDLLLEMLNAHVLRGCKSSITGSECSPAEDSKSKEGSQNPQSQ

[2] = system: uterus (indicator of classical ERα-mediated estrogen action); assay: Uterus fresh weight in ovariectomized SHR; format: in vivo, rat; settings: ovx SHR, daily sc injection for 4 weeks; 30 μg/kg/d (estradiol 2 μg/kg/d); FIG. 1
From the text: (§1) The effects of the ERβ-agonists on blood pressure (BP) in ovariectomized SHR, a widely accepted animal model of hypertensive heart disease, were investigated in three independent studies. Estradiol and the steroidal ERα agonist 3,17β-Dihydroxy-19-nor-17α-pregna-1,3,5(10)-triene-21,16α-lactone were used as references. Female spontaneously hypertensive rats (SHR-Nico; 12 weeks old; Charles River Laboratories) were used for the experiment. All animals were kept under standard conditions (eg 12 hr ON/OFF light cycle, commercial diet and water ad libitum). Animals were randomly assigned to different treatment groups as outlined below. All animals were marked individually by ear tag. Female rats (SHR; 12 weeks old) were ovarectomized (ovx) and treated for 4 weeks starting one day after ovx according to the protocol outlined below. All compounds were injected daily using ethanol (EtOH)/peanut oil 4+1 as the vehicle. [table] 12 weeks old female SHR (Charles River™) were ovariectomized or sham-operated. […] After 4 weeks treatment hemodynamic parameters were measured as described previously (Fraccarollo D, Hu K, Galuppo P, Gaudron P, Ertl G. (1997), Circulation. 1997;96:3963-3973) and animals were euthanized. Uterus fresh weight was measured as an indicator of classical ERα-mediated estrogen action.

[3] = Body weight of ovariectomized SHR; format: in vivo, rat; settings: daily sc injection for 4 weeks, 30 μg/kg/d (estradiol 2 μg/kg/d), FIG. 2
From the text: as §1, with “euthanized.” for “euthanized. Uterus fresh weight was measured as an indicator of classical ERα-mediated estrogen action.”

[4] = system: spontaneously hypertensive rats (SHR); assay: In vivo hemodynamics in ovariectomized spontaneously hypertensive rats (SHR); set-up: species or system rat; settings: for cardiac output: FIG. 4; for blood pressure / effectiveness in lowering blood pressure relative to estradiol and the ERα agonist: ovx SHR, FIG. 3; for blood pressure: compared to vehicle treated (placebo) animals; for effectiveness in lowering blood pressure relative to estradiol and the ERα agonist: 30 μg/kg/d vs estradiol 2 μg/kg/d and ERα agonist 30 μg/kg/d
From the text: The effects of the ERβ-agonists on blood pressure (BP) in ovariectomized SHR, a widely accepted animal model of hypertensive heart disease, were investigated in three independent studies. Estradiol and the steroidal ERα agonist 3,17β-Dihydroxy-19-nor-17α-pregna-1,3,5(10)-triene-21,16α-lactone were used as references. Female spontaneously hypertensive rats (SHR-Nico; 12 weeks old; Charles River Laboratories) were used for the experiment. All animals were kept under standard conditions (eg 12 hr ON/OFF light cycle, commercial diet and water ad libitum). Animals were randomly assigned to different treatment groups as outlined below. All animals were marked individually by ear tag. Female rats (SHR; 12 weeks old) were ovarectomized (ovx) and treated for 4 weeks starting one day after ovx according to the protocol outlined below. All compounds were injected daily using ethanol (EtOH)/peanut oil 4+1 as the vehicle. [table] 12 weeks old female SHR (Charles River™) were ovariectomized or sham-operated. Starting one day after ovariectomy animals were randomly selected for a daily subcutaneous injection of 17β-estradiol (E2, 2 μg/kg body weight/d), the selective ERα agonist 3,17β-Dihydroxy-19-nor-17α-pregna-1,3,5(10)-triene-21,16α-lactone (WO 02/26763) (30 μg/kg body weight/d), the selective ERβ agonist 8β-Vinyl-estra-1,3,5(10)-trien-3,17β-diol (or 17β-Fluor-9α-vinyl-estra-1,3,5(10)-trien-3,16α-diol, respectively 30 μg/kg body weight) or placebo. All animals had free access to standard rat chow and water. E2, 3,17β-Dihydroxy-19-nor-17α-pregna-1,3,5(10)-triene-21,16α-lactone and 8β-Vinyl-estra-1,3,5(10)-trien-3,17β-diol (or 17β-Fluor-9α-vinyl-estra-1,3,5(10)-trien-3,16α-diol) were dissolved in ethanol and injected daily using peanut oil as a carrier substance, placebo animals received ethanol/peanut oil alone. After 4 weeks treatment hemodynamic parameters were measured as described previously (Fraccarollo D, Hu K, Galuppo P, Gaudron P, Ertl G. (1997), Circulation. 1997;96:3963-3973) and animals were euthanized. The following parameters were determined: Systolic, diastolic, mean blood pressure; left ventricular ejection fraction; systolic and diastolic left ventricular pressure as well as the velocity of pressure increase and decrease in the left ventricle; cardiac output, cardiac index, heart rate; systemic vascular resistance. All measurements were performed at rest under isofluran anesthesia. Values are expressed as mean±SEM of parameters from different animals. Statistical analysis was performed by one-way analysis of variance (ANOVA) followed by a post hoc Bonferroni test. P values <0.05 were considered statistically significant.

[5] = system: spontaneously hypertensive rats (SHR); assay: Cardiac hypertrophy (heart weight) in ovariectomized SHR; format: in vivo, rat; settings: ovx SHR, 4 weeks daily sc; 30 μg/kg/d (estradiol 2 μg/kg/d), compared to placebo treated rats; FIG. 6
From the text: as §1, with “[table]” for “[table] 12 weeks old female SHR (Charles River™) were ovariectomized or sham-operated.”, “Cardiac hypertrophy in all animals was determined by measuring total heart” for “Uterus fresh”, “and subsequent normalization to tibia length. Values are expressed” for “was measured”, “mean±SEM” for “an indicator”, “parameters from different animals. […]” for “classical ERα-mediated estrogen action.”

[6] = ovx (estradiol-deficient) SHR, 30 μg/kg/d sc for 4 weeks

| Compound | binding affinity to rat prostate estrogen receptor compared to rat uterus estrogen receptor [1] | affinity to human ERβ compared to ERα (human ERβ) | stimulation of uterine growth (uterine weight) [2] | effect on ovx-induced adipose phenotype (body weight) [3] | cardiac index [4, 6] | cardiac output [4, 6] | left-ventricular stroke volume ([4]; ovx (estradiol-deficient) SHR, 30 μg/kg/d sc for 4 weeks, FIG. 5) | blood pressure ([4]; 30 μg/kg/d sc for 4 weeks) | effectiveness in lowering blood pressure relative to estradiol and the ERα agonist [4] | cardiac hypertrophy (heart weight) [5] |
| --- | --- | --- | --- | --- | --- | --- | --- | --- | --- | --- |
| C=C[C@@]12CCc3cc(O)ccc3[C@H]1CC[C@@]1(C)[C@H]2CC[C@@H]1O [8β-Vinyl-estra-1,3,5(10)-trien-3,17β-diol] | higher binding affinity to the rat prostate compared to rat uterus estrogen receptor | higher affinity to human ERβ compared to ERα | did neither cause stimulation of uterine growth | nor affect the ovx-induced adipose phenotype | augmented | significant improvement of cardiac output; also recorded: increase cardiac output; also recorded: augmented | augmented | significant reduction of systolic as well as diastolic blood pressure; also recorded: lower systolic, mean and diastolic blood pressure; also recorded: lowered blood pressure levels | more effective | significantly inhibited; also recorded: prevent the development of cardiac hypertrophy; also recorded: inhibitory effect on cardiac hyperthrophy as indicated by a reduction in heart weight |
| C=C[C@]12CC[C@]3(C)[C@@H](F)[C@H](O)C[C@H]3[C@@H]1CCc1cc(O)ccc12 [17β-Fluor-9α-vinyl-estra-1,3,5(10)-trien-3,16α-diol] | higher binding affinity to the rat prostate compared to rat uterus estrogen receptor | higher affinity to human ERβ compared to ERα | – | – | – | significant improvement of cardiac output; also recorded: increase cardiac output | – | significant reduction of systolic as well as diastolic blood pressure; also recorded: lower systolic, mean and diastolic blood pressure | more effective | significantly inhibited; also recorded: prevent the development of cardiac hypertrophy |
